# Data: ChEMBL document CHEMBL3792297, “Studies on phenothiazines: New microtubule-interacting compounds with phenothiazine A-ring as potent antineoplastic agents” (Bioorg Med Chem, 2016)
# Assays:
# [1] = Growth inhibition of human HCT116 cells at 10 uM after 48 hrs by SRB assay relative to control; type: functional; details: HCT-116, 48 h, read-out: GI
# [2] = tested on: HT-29; test: Growth inhibition of human HT-29 cells at 10 uM after 48 hrs by SRB assay relative to control; type: functional; details: HT-29, 48 h, read-out: GI
# [3] = tested on: SK-MEL-2; test: Growth inhibition of human SK-MEL-2 cells at 10 uM after 48 hrs by SRB assay relative to control; type: functional; details: SK-MEL-2, 48 h, read-out: GI
# [4] = tested on: SK-MEL-28; test: Growth inhibition of human SK-MEL-28 cells at 10 uM after 48 hrs by SRB assay relative to control; type: functional; details: SK-MEL-28, 48 h, read-out: GI
# [5] = Growth inhibition of human UACC62 cells at 10 uM after 48 hrs by SRB assay relative to control; type: functional; details: UACC-62, 48 h, read-out: GI
# [6] = Growth inhibition of human LOXIMVI cells at 10 uM after 48 hrs by SRB assay relative to control; type: functional; details: LOX IMVI, read-out: GI
# [7] = Growth inhibition of human UACC257 cells at 10 uM after 48 hrs by SRB assay relative to control; type: functional; details: UACC-257, 48 h, read-out: GI
# [8] = Growth inhibition of human OVCAR4 cells at 10 uM after 48 hrs by SRB assay relative to control; type: functional; details: OVCAR-4, 48 h, read-out: GI
# [9] = Growth inhibition of human OVCAR8 cells at 10 uM after 48 hrs by SRB assay relative to control; type: functional; details: OVCAR-8, 48 h, read-out: GI
# [10] = Growth inhibition of human SKOV3 cells at 10 uM after 48 hrs by SRB assay relative to control; type: functional; details: SK-OV-3, 48 h, read-out: GI
# [11] = Growth inhibition of human IGROV1 cells at 10 uM after 48 hrs by SRB assay relative to control; type: functional; details: IGROV-1, 48 h, read-out: GI
# [12] = Growth inhibition of human Caki1 cells at 10 uM after 48 hrs by SRB assay relative to control; type: functional; details: CAKI-1, 48 h, read-out: GI
# [13] = Growth inhibition of human RXF393 cells at 10 uM after 48 hrs by SRB assay relative to control; type: functional; details: RXF 393, 48 h, read-out: GI
# [14] = tested on: SN12C; test: Growth inhibition of human SN12C cells at 10 uM after 48 hrs by SRB assay relative to control; type: functional; details: read-out: GI
# [15] = Growth inhibition of human UO31 cells at 10 uM after 48 hrs by SRB assay relative to control; type: functional; details: UO-31, 48 h, read-out: GI
# [16] = tested on: 786-0; test: Growth inhibition of human 786-0 cells at 10 uM after 48 hrs by SRB assay relative to control; type: functional; details: 786-0, 48 h, read-out: GI
# [17] = Growth inhibition of human TK10 cells at 10 uM after 48 hrs by SRB assay relative to control; type: functional; details: TK-10, 48 h, read-out: GI
# [18] = Growth inhibition of human DU145 cells at 10 uM after 48 hrs by SRB assay relative to control; type: functional; details: DU-145, 48 h, read-out: GI
# [19] = Growth inhibition of human PC3 cells at 10 uM after 48 hrs by SRB assay relative to control; type: functional; details: PC-3, 48 h, read-out: GI
# [20] = Growth inhibition of human SF268 cells at 10 uM after 48 hrs by SRB assay relative to control; type: functional; details: SF-268, 48 h, read-out: GI
# [21] = Growth inhibition of human SF295 cells at 10 uM after 48 hrs by SRB assay relative to control; type: functional; details: SF-295, 48 h, read-out: GI
# [22] = Growth inhibition of human SNB75 cells at 10 uM after 48 hrs by SRB assay relative to control; type: functional; details: SNB-75, 48 h, read-out: GI
# [23] = tested on: MCF7; test: Growth inhibition of human MCF7 cells at 10 uM after 48 hrs by SRB assay relative to control; type: functional; details: MCF7, 48 h, read-out: GI
# [24] = tested on: MDA-MB-231; test: Growth inhibition of human MDA-MB-231 cells at 10 uM after 48 hrs by SRB assay relative to control; type: functional; details: MDA-MB-231, 48 h, read-out: GI
# [25] = Growth inhibition of human Hs 578T cells at 10 uM after 48 hrs by SRB assay relative to control; type: functional; details: read-out: GI
# [26] = tested on: MDA-MB-468; test: Growth inhibition of human MDA-MB-468 cells at 10 uM after 48 hrs by SRB assay relative to control; type: functional; details: MDA-MB-468, 48 h, read-out: GI
# [27] = organism: Ovis aries; test: Inhibition of sheep brain tubulin polymerization at 100 uM by DAPI staining-based fluorimetric method
# [28] = tested on: CCRF-CEM; test: Growth inhibition of human CCRF-CEM cells at 10 uM after 48 hrs by SRB assay relative to control; type: functional; details: read-out: GI
# [29] = Growth inhibition of human HL-60(TB) cells at 10 uM after 48 hrs by SRB assay relative to control; type: functional; details: HL-60, 48 h, read-out: GI
# [30] = Growth inhibition of human RPMI8226 cells at 10 uM after 48 hrs by SRB assay relative to control; type: functional; details: RPMI-8226, 48 h, read-out: GI
# [31] = tested on: SR; test: Growth inhibition of human SR cells at 10 uM after 48 hrs by SRB assay relative to control; type: functional; details: read-out: GI
# [32] = tested on: EKVX; test: Growth inhibition of human EKVX cells at 10 uM after 48 hrs by SRB assay relative to control; type: functional; details: read-out: GI
# [33] = tested on: NCI-H226; test: Growth inhibition of human NCI-H226 cells at 10 uM after 48 hrs by SRB assay relative to control; type: functional; details: NCI-H226, 48 h, read-out: GI
# [34] = tested on: NCI-H460; test: Growth inhibition of human NCI-H460 cells at 10 uM after 48 hrs by SRB assay relative to control; type: functional; details: NCI-H460, 48 h, read-out: GI
# [35] = tested on: NCI-H522; test: Growth inhibition of human NCI-H522 cells at 10 uM after 48 hrs by SRB assay relative to control; type: functional; details: NCI-H522, 48 h, read-out: GI
# [36] = Growth inhibition of human COLO205 cells at 10 uM after 48 hrs by SRB assay relative to control; type: functional; details: COLO 205, 48 h, read-out: GI
# [37] = tested on: A498; test: Growth inhibition of human A498 cells at 10 uM after 48 hrs by SRB assay relative to control; type: functional; details: A498, 48 h, read-out: GI
SMILES,inhibition of growth at 10 µM [1],inhibition of growth at 10 µM [2],inhibition of growth at 10 µM [3],inhibition of growth at 10 µM [4],inhibition of growth at 10 µM [5],inhibition of growth at 10 µM [6],inhibition of growth at 10 µM [7],inhibition of growth at 10 µM [8],inhibition of growth at 10 µM [9],inhibition of growth at 10 µM [10],inhibition of growth at 10 µM [11],inhibition of growth at 10 µM [12],inhibition of growth at 10 µM [13],inhibition of growth at 10 µM [14],inhibition of growth at 10 µM [15],inhibition of growth at 10 µM [16],inhibition of growth at 10 µM [17],inhibition of growth at 10 µM [18],inhibition of growth at 10 µM [19],inhibition of growth at 10 µM [20],further results
COc1ccc(C(=O)N2c3ccccc3Sc3ccccc32)cc1F,85%,100%,100%,57%,62%,64%,50%,59%,97%,87%,70%,48%,84%,66%,50%,64%,49%,95%,71%,58%,inhibition of growth at 10 µM [21]: 89%; inhibition of growth at 10 µM [22]: 81%; inhibition of growth at 10 µM [23]: 82%; inhibition of growth at 10 µM [24]: 69%; inhibition of growth at 10 µM [25]: 100%; inhibition of growth at 10 µM [26]: 100%; inhibition [27]: 99%; inhibition of growth at 10 µM [28]: 88%; inhibition of growth at 10 µM [29]: 89%; inhibition of growth at 10 µM [30]: 44%; inhibition of growth at 10 µM [31]: 75%; inhibition of growth at 10 µM [32]: 59%; inhibition of growth at 10 µM [33]: 30%; inhibition of growth at 10 µM [34]: 96%; inhibition of growth at 10 µM [35]: 100%; inhibition of growth at 10 µM [36]: 100%
O=C(c1ccc2c(c1)Sc1ccccc1N2)c1c[nH]c2ccccc12,82%,99%,94%,54%,46%,85%,43%,39%,77%,85%,71%,66%,91%,57%,58%,50%,63%,91%,74%,45%,inhibition of growth at 10 µM [37]: 92%; inhibition of growth at 10 µM [21]: 96%; inhibition of growth at 10 µM [22]: 100%; inhibition of growth at 10 µM [23]: 80%; inhibition of growth at 10 µM [24]: 54%; inhibition of growth at 10 µM [25]: 100%; inhibition of growth at 10 µM [26]: 100%; inhibition [27]: 66%; inhibition of growth at 10 µM [28]: 81%; inhibition of growth at 10 µM [29]: 85%; inhibition of growth at 10 µM [30]: 56%; inhibition of growth at 10 µM [31]: 76%; inhibition of growth at 10 µM [32]: 47%; inhibition of growth at 10 µM [33]: 18%; inhibition of growth at 10 µM [34]: 90%; inhibition of growth at 10 µM [35]: 100%; inhibition of growth at 10 µM [36]: 100%
